Biological target: T1, WT/R232 STING protein (Homo sapiens, UniProt Q86WV6, H232R)
T1 construct: host or cells: HEK293T
Test: Luciferase reporter assay in HEK293T-hSTING-Luciferase cells (R232)
Assay type: cell-based
Settings: 20 hr stimulation, EC50 range
Summary of the method: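 Clonal HEK293T cells stably expressing human STING R232 plus an ISRE/ISG54-driven secreted luciferase reporter, stimulated with compounds for 20 hr. Luciferase in supernatant read by luminescence; activity given as fold-induction over baseline.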

T1 sequence (Q86WV6 whole entry H232R): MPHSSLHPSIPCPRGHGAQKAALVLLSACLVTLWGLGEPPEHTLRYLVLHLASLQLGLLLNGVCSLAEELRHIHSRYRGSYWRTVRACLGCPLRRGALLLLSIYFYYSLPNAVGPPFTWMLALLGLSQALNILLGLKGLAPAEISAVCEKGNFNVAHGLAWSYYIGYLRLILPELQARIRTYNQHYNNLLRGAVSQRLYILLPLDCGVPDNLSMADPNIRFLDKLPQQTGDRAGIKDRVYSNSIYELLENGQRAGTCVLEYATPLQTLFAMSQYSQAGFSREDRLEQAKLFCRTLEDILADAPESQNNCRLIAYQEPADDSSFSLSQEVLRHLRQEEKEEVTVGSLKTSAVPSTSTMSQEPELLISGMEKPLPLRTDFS

Row | SMILES | EC50 [µM]
1 | CC1(C)C(=O)N(Cc2ccccc2F)c2cc(C(=O)NCc3ccco3)ccc21 [Example 1, 1-(2-Fluorobenzyl)-N-(furan-2-ylmethyl)-3,3-dimethyl-2-oxoindoline-6-carboxamide] | 1 to 10
2 | CC1(C)C(=O)N(Cc2cc(F)cc(F)c2)c2cc(C(=O)NCc3ccc(F)cc3F)cnc21 [Example 199, N-(2,4-difluorobenzyl)-1-(3,5-difluorobenzyl)-3,3-dimethyl-2-oxo-2,3-dihydro-1H-pyrrolo[3,2-b]pyridine-6-carboxamide] | 1 to 10
3 | Cc1ccc(CNC(=O)c2ccc3c(c2)N(C(C)c2ccc(F)cc2)C(=O)C3(C)C)o1 (centres unmarked) [Example 123, 1-(1-(4-fluorophenyl)ethyl)-3,3-dimethyl-N-((5-methylfuran-2-yl)methyl)-2-oxoindoline-6-carboxamide] | 1 to 10
4 | CC1(C)C(=O)N(Cc2cc(F)cc(F)c2)c2cc(C(=O)NCc3ccc(F)cc3)cnc21 [Example 198, 1-(3,5-difluorobenzyl)-N-(4-fluorobenzyl)-3,3-dimethyl-2-oxo-2,3-dihydro-1H-pyrrolo[3,2-b]pyridine-6-carboxamide] | 1 to 10
5 | Cc1ccc(CNC(=O)c2ccc3c(n2)N(Cc2c(C)cccc2F)C(=O)C3(C)C)o1 [Example 195, 1-(2-fluoro-6-methylbenzyl)-3,3-dimethyl-N-((5-methylfuran-2-yl)methyl)-2-oxo-2,3-dihydro-1H-pyrrolo[2,3-b]pyridine-6-carboxamide] | 1 to 10
6 | CC1(C)C(=O)N(Cc2cc(F)cc(F)c2)c2cc(C(=O)NCC3CCC(F)(F)CC3)ccc21 [Example 43, 1-(3,5-difluorobenzyl)-N-((4,4-difluorocyclohexyl)methyl)-3,3-dimethyl-2-oxoindoline-6-carboxamide] | > 10
7 | Cc1cccc(F)c1CN1C(=O)C(C)(C)c2ccc(C(=O)NCc3ccc(F)cc3)nc21 [Example 194, 1-(2-fluoro-6-methylbenzyl)-N-(4-fluorobenzyl)-3,3-dimethyl-2-oxo-2,3-dihydro-1H-pyrrolo[2,3-b]pyridine-6-carboxamide] | 1 to 10
8 | CC1(O)C(=O)N(Cc2ccccc2F)c2cc(C(=O)NCc3ccco3)ccc21 (centres unmarked) [Example 149, 1-(2-fluorobenzyl)-N-(furan-2-ylmethyl)-3-hydroxy-3-methyl-2-oxoindoline-6-carboxamide] | > 10
9 | CC1(C)C(=O)N(Cc2ccc(F)cc2)c2cc(C(=O)NCc3ccco3)ccc21 [Example 41, 1-(4-fluorobenzyl)-N-(furan-2-ylmethyl)-3,3-dimethyl-2-oxoindoline-6-carboxamide] | 1 to 10
10 | Cc1ccc(CN2C(=O)C(C)(C)c3ccc(C(=O)NCc4cc(F)cc(F)c4)cc32)o1 [Example 125, N-(3,5-difluorobenzyl)-3,3-dimethyl-1-((5-methylfuran-2-yl)methyl)-2-oxoindoline-6-carboxamide] | > 10
11 | O=C(NCc1ccco1)c1ccc2oc(=O)n(Cc3ccccc3F)c2c1 [Example 200, 3-(2-Fluorobenzyl)-N-(furan-2-ylmethyl)-2-oxo-2,3-dihydrobenzo[d]oxazole-5-carboxamide] | > 10
12 | Cc1cc(CN2C(=O)C(C)(C)c3ccc(C(=O)NCc4ccc(C)o4)cc32)ccn1 [Example 55, 3,3-dimethyl-N-((5-methylfuran-2-yl)methyl)-1-((2-methylpyridin-4-yl)methyl)-2-oxoindoline-6-carboxamide] | > 10
13 | CC1(C)C(=O)N(Cc2cc(F)cc(F)c2)c2cc(C(=O)NCc3cccc(C#N)c3)ccc21 [Example 44, N-(3-cyanobenzyl)-1-(3,5-difluorobenzyl)-3,3-dimethyl-2-oxoindoline-6-carboxamide] | > 10
14 | Cc1ccc(CNC(=O)c2ccc3c(c2)N(Cc2ccc(F)c(F)c2)C(=O)C3(C)C)o1 [Example 122, 1-(3,4-difluorobenzyl)-3,3-dimethyl-N-((5-methylfuran-2-yl)methyl)-2-oxoindoline-6-carboxamide] | 1 to 10

Continued, values first:

Row | EC50 [µM] | SMILES
15 | 1 to 10 | CNC1(C)C(=O)N(Cc2cc(F)cc(F)c2)c2cc(C(=O)NCc3c(F)cc(F)cc3F)ccc21 (centres unmarked) [Example 145, 1-(3,5-Difluorobenzyl)-3-methyl-3-(methylamino)-2-oxo-N-(2,4,6-trifluorobenzyl)indoline-6-carboxamide]
16 | > 10 | CC(C)C1(O)C(=O)N(Cc2c(F)cccc2Cl)c2cc(C(=O)NCc3c(F)cc(F)cc3F)ccc21 (centres unmarked) [Example 159, 1-(2-chloro-6-fluorobenzyl)-3-hydroxy-3-isopropyl-2-oxo-N-(2,4,6-trifluorobenzyl)indoline-6-carboxamide]
17 | > 10 | CC1(CCN)C(=O)N(Cc2cc(F)cc(F)c2)c2cc(C(=O)NCc3c(F)cc(F)cc3F)ccc21 (centres unmarked) [Example 173, 3-(2-aminoethyl)-1-(3,5-difluorobenzyl)-3-methyl-2-oxo-N-(2,4,6-trifluorobenzyl)indoline-6-carboxamide]
18 | > 10 | CC1(C)C(=O)N(Cc2c(F)cccc2Cl)c2cc(C(=O)NCc3cccc4occc34)ccc21 [Example 93, N-(benzofuran-4-ylmethyl)-1-(2-chloro-6-fluorobenzyl)-3,3-dimethyl-2-oxoindoline-6-carboxamide]
19 | > 10 | Cc1ccnc(CNC(=O)c2ccc3c(c2)N(Cc2c(F)cccc2Cl)C(=O)C3(C)C)c1 [Example 32, 1-(2-chloro-6-fluorobenzyl)-3,3-dimethyl-N-((4-methylpyridin-2-yl)methyl)-2-oxoindoline-6-carboxamide]
20 | 1 to 10 | CC1(C)C(=O)N(Cc2c(F)cccc2Cl)c2cc(C(=O)NCc3ccc4c(c3)OCO4)ccc21 [Example 86, N-(benzo[d][1,3]dioxol-5-ylmethyl)-1-(2-chloro-6-fluorobenzyl)-3,3-dimethyl-2-oxoindoline-6-carboxamide]
21 | 1 to 10 | Cc1ncc(CN2C(=O)C(C)(C)c3ccc(C(=O)NCc4c(F)cc(F)cc4F)cc32)s1 [Example 58, 3,3-dimethyl-1-((2-methylthiazol-5-yl)methyl)-2-oxo-N-(2,4,6-trifluorobenzyl)indoline-6-carboxamide]
22 | > 10 | CC1(C)C(=O)N(Cc2cc(F)cc(F)c2)c2cc(C(=O)NCc3c(F)cc(F)cc3F)ncc21 [Example 186, 1-(3,5-difluorobenzyl)-3,3-dimethyl-2-oxo-N-(2,4,6-trifluorobenzyl)-2,3-dihydro-1H-pyrrolo[3,2-c]pyridine-6-carboxamide]
23 | > 10 | CC1(CCCO)C(=O)N(Cc2c(F)cccc2Cl)c2cc(C(=O)NCc3c(F)cc(F)cc3F)ccc21 (centres unmarked) [Example 177, 1-(2-chloro-6-fluorobenzyl)-3-(3-hydroxypropyl)-3-methyl-2-oxo-N-(2,4,6-trifluorobenzyl)indoline-6-carboxamide]
24 | 1 to 10 | CC1(C)C(=O)N(Cc2ccc(C(N)=O)cc2F)c2cc(C(=O)NCc3c(F)cc(F)cc3F)ccc21 [Example 121, 1-(4-carbamoyl-2-fluorobenzyl)-3,3-dimethyl-2-oxo-N-(2,4,6-trifluorobenzyl)indoline-6-carboxamide]
25 | 1 to 10 | Cn1nc(C(F)(F)F)cc1CN1C(=O)C(C)(C)c2ccc(C(=O)NCc3c(F)cc(F)cc3F)cc21 [Example 113, 3,3-dimethyl-1-((1-methyl-3-(trifluoromethyl)-1H-pyrazol-5-yl)methyl)-2-oxo-N-(2,4,6-trifluorobenzyl)indoline-6-carboxamide]
26 | 1 to 10 | CC1(C)C(=O)N(Cc2cccc(C(F)(F)F)c2)c2cc(C(=O)NCc3c(F)cc(F)cc3F)ccc21 [Example 17, 3,3-dimethyl-2-oxo-N-(2,4,6-trifluorobenzyl)-1-(3-(trifluoromethyl)benzyl)indoline-6-carboxamide]
27 | 1 to 10 | CC1(C)C(=O)N(Cc2c(F)cccc2Cl)c2cc(C(=O)NCc3cc4cc([N+](=O)[O-])ccc4o3)ccc21 [Example 94, 1-(2-chloro-6-fluorobenzyl)-3,3-dimethyl-N-((5-nitrobenzofuran-2-yl)methyl)-2-oxoindoline-6-carboxamide]
28 | > 10 | Cc1cc(CN2C(=O)C(C)(C)c3ccc(C(=O)NCc4c(F)cc(F)cc4F)cc32)on1 [Example 52, 3,3-dimethyl-1-((3-methylisoxazol-5-yl)methyl)-2-oxo-N-(2,4,6-trifluorobenzyl)indoline-6-carboxamide]
29 | > 10 | CC1(CCO)C(=O)N(Cc2cc(F)cc(F)c2)c2cc(C(=O)NCc3ccc(F)cc3F)ccc21 (centres unmarked) [Example 174, N-(2,4-difluorobenzyl)-1-(3,5-difluorobenzyl)-3-(2-hydroxyethyl)-3-methyl-2-oxoindoline-6-carboxamide]
30 | > 10 | CC1(C)C(=O)N(Cc2nc3ccccc3o2)c2cc(C(=O)NCc3c(F)cc(F)cc3F)ccc21 [Example 101, 1-(benzo[d]oxazol-2-ylmethyl)-3,3-dimethyl-2-oxo-N-(2,4,6-trifluorobenzyl)indoline-6-carboxamide]
31 | > 10 | CC1C(=O)N(Cc2c(F)cccc2Cl)c2cc(C(=O)NCc3c(F)cc(F)cc3F)ccc21 (centres unmarked) [Example 21, 1-(2-chloro-6-fluorobenzyl)-3-methyl-2-oxo-N-(2,4,6-trifluorobenzyl)indoline-6-carboxamide]
32 | 1 to 10 | CC1(C)C(=O)N(Cc2cc(F)cc(F)c2)c2nc(C(=O)NCc3c(F)cc(F)cc3F)ccc21 [Example 180, 1-(3,5-difluorobenzyl)-3,3-dimethyl-2-oxo-N-(2,4,6-trifluorobenzyl)-2,3-dihydro-1H-pyrrolo[2,3-b]pyridine-6-carboxamide]
33 | ≤ 1 | COc1ccc(F)c(CN2C(=O)C(C)(C)c3ccc(C(=O)NCc4c(F)cc(F)cc4F)cc32)c1Cl [Example 66, 1-(2-chloro-6-fluoro-3-methoxybenzyl)-3,3-dimethyl-2-oxo-N-(2,4,6-trifluorobenzyl)indoline-6-carboxamide]
34 | 1 to 10 | Cc1ccc(CNC(=O)c2ccc3c(c2)N(Cc2c(F)cccc2Cl)C(=O)C3(C)C)s1 [Example 24, 1-(2-chloro-6-fluorobenzyl)-3,3-dimethyl-N-((5-methylthiophen-2-yl)methyl)-2-oxoindoline-6-carboxamide]
35 | > 10 | CC1(C(N)=O)C(=O)N(Cc2cc(F)cc(F)c2)c2cc(C(=O)NCc3c(F)cc(F)cc3F)ccc21 (centres unmarked) [Example 170]

Source: patent publication US20200172483A1, “HETEROCYCLIC SMALL MOLECULE MODULATORS OF HUMAN STING” (Curadev Pharma Limited, priority 2017, published 2020)
